Test [1] concerns the target PIK3CG (human) (UniProt P48736). Briefly: Cell-Based Assay. The settings on record: u937.
The target of another test is PIK3CA (human) (UniProt P42336). Briefly: Enzyme Assay.
Another test addresses PIK3CB (Human) (UniProt P42338). Briefly: Enzyme Assay.
In a further test the target is PIK3CD (Human) (UniProt O00329). Briefly: Enzyme Assay.
Test [2] deals with PIK3CG (human) (UniProt P48736). The test is described as follows: Enzyme Assay.
Test [3] shares this target. Briefly: Cell-Based Assay. Particulars: u937. This is another data set of the same source.

Here are results for 16 compounds from the Kinase Knowledgebase extract (Sharma et al. 2016).

SMILES strings stand for the structures. Values joined by “and” are separate entries in the source; they are usually repeats but may differ in a detail not shown here. Equal values may be shown once. Bounds are passed on as bounds.

The term IC50 denotes the midpoint of a concentration-inhibition curve. Higher therefore signals lower potency.

Sequence of PIK3CD (Human) (O00329 whole entry, looked up): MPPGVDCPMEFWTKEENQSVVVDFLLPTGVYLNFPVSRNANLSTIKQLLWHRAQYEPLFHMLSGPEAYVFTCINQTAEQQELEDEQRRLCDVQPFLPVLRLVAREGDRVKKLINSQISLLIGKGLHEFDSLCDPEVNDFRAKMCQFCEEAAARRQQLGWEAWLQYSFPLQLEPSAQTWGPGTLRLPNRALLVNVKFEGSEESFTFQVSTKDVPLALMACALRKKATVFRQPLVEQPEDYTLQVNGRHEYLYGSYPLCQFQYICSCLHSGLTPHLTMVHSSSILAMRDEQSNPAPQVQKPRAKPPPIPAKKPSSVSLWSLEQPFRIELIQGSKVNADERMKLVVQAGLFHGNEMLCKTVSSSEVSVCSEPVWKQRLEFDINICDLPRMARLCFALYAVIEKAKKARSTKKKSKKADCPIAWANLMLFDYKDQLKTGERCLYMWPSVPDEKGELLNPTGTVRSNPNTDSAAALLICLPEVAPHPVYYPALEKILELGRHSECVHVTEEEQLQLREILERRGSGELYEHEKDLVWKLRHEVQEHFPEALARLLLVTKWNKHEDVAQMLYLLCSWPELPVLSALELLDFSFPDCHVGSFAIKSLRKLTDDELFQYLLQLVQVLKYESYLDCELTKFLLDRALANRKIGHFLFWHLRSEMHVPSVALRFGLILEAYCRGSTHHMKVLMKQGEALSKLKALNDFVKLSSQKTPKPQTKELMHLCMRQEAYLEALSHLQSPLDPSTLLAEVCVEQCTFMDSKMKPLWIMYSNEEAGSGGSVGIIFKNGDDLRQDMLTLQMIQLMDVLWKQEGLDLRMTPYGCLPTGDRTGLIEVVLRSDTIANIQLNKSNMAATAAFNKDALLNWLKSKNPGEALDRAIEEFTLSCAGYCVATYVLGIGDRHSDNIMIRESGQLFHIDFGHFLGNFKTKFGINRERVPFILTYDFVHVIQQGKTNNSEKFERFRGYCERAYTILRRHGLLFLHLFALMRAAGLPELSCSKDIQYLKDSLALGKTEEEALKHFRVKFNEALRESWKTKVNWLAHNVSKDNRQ
Sequence of PIK3CA (human) (P42336 whole entry, looked up): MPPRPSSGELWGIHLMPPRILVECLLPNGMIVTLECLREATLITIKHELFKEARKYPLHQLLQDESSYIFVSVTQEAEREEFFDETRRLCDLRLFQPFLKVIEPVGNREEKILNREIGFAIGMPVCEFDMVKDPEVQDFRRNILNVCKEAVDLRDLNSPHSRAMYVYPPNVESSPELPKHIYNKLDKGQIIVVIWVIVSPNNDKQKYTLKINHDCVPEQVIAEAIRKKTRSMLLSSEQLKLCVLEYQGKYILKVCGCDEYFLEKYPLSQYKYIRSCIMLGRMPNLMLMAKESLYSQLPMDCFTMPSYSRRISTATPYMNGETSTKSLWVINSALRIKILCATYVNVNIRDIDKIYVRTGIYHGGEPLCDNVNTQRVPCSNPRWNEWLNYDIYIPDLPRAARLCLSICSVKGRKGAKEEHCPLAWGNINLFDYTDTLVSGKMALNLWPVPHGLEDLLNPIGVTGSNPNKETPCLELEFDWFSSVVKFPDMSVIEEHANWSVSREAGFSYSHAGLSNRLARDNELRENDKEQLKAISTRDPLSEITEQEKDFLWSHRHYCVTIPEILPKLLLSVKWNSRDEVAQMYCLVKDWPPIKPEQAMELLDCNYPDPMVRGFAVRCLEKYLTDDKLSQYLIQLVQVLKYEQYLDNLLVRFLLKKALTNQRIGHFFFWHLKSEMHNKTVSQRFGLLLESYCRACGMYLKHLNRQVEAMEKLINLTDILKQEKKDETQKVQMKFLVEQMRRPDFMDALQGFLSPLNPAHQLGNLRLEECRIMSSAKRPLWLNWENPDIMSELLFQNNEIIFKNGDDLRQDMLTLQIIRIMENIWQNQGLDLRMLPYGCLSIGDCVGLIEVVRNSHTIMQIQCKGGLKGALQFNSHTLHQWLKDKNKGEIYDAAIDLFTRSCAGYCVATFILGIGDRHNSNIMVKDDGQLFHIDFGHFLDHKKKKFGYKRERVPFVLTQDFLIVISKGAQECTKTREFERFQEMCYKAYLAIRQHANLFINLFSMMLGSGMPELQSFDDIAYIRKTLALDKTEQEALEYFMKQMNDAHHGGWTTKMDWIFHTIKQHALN
Sequence of PIK3CG (human) (P48736 whole entry, looked up): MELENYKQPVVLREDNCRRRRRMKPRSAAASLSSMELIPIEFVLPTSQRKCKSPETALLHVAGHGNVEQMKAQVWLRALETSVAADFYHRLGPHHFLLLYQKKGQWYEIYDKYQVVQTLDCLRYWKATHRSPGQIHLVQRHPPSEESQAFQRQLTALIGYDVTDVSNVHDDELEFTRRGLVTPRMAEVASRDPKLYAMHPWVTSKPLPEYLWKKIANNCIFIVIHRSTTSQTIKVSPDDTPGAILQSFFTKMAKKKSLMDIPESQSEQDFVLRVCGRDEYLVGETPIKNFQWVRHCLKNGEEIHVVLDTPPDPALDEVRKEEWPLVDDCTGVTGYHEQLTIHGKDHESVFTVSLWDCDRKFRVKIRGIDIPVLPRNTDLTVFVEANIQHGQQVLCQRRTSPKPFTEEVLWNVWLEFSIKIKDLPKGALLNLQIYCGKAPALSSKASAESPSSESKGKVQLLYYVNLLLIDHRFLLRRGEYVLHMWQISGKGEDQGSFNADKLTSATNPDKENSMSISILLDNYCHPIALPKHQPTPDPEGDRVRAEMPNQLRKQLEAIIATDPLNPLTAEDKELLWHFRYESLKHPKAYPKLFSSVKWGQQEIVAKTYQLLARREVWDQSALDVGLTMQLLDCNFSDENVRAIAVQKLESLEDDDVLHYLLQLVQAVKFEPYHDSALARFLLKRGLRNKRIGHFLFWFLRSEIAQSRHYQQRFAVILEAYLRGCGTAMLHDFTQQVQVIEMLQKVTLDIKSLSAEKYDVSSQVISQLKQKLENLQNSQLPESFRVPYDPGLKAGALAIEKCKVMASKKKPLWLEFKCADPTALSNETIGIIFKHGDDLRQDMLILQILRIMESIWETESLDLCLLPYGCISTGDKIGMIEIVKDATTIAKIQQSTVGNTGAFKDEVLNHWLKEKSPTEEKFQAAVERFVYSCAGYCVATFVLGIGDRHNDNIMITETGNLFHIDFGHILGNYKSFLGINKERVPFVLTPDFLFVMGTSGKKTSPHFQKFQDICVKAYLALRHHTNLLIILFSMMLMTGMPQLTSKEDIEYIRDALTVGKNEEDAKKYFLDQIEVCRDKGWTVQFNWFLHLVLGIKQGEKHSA
Sequence of PIK3CB (Human) (P42338 whole entry, looked up): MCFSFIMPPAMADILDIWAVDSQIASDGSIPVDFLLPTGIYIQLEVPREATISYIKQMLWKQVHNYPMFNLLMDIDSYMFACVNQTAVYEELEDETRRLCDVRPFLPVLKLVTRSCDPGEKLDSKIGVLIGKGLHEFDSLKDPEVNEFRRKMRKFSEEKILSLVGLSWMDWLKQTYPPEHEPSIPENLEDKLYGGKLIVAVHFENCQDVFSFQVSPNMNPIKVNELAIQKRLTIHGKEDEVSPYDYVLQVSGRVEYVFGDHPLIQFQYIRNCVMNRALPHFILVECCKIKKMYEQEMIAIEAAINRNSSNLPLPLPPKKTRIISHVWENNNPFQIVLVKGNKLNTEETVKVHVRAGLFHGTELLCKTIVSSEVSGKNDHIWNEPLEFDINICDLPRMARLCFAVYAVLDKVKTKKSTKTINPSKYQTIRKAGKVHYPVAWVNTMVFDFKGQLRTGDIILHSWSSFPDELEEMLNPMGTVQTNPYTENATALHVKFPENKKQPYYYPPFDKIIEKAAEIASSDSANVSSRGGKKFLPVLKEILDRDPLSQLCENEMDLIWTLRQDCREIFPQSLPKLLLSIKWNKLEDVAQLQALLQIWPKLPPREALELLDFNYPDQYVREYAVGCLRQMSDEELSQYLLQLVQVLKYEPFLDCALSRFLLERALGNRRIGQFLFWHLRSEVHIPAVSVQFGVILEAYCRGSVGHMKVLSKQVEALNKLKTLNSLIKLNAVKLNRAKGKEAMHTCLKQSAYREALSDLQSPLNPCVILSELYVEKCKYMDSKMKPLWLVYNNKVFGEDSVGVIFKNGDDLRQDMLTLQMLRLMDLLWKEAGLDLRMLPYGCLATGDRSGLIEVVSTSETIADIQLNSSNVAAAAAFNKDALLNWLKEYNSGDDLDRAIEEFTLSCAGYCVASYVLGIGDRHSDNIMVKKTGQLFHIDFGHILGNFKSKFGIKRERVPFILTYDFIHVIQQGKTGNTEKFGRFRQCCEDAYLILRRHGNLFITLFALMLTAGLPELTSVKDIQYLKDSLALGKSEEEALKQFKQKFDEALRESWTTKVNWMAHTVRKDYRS

The compound `Cc1cc(-c2nc(-c3cc(S(=O)(=O)NCC4CCN(C)C4)ccc3C)cnc2N)ccn1` (configuration not stated) displayed an IC50 against PIK3CG (human) [1] above 10000 nM.

In the case of `Cc1ccc(S(=O)(=O)NC[C@H]2CNC[C@@H]2O)cc1-c1cnc(N)c(-n2cncn2)n1`, the half-inhibitory concentration (IC50) worked out at 960 nM on PIK3CA (human), 730 nM on PIK3CB (Human), 2400 nM against PIK3CD (Human) and 140 nM at PIK3CG (human) [2].

Turning to `Cc1ccc(S(=O)(=O)N[C@H]2CC[C@@](C)(O)CC2)cc1-c1cnc(N)c(-n2cncn2)n1`, the half-inhibitory concentration (IC50) at PIK3CG (human) [1] is 103 nM and 135 nM.

Regarding `Cc1ccc(S(=O)(=O)NCC2(O)CCOCC2)cc1-c1cnc(N)c(-n2cncn2)n1`, the IC50 on PIK3CA (human) worked out at 660 nM; against PIK3CB (Human), 1460 nM; on PIK3CD (Human) it was 1500 nM; on PIK3CG (human) [2], 94 nM; against PIK3CG (human) [1] it was 387 nM.

Consider `CN[C@H]1CCC[C@@H]1NS(=O)(=O)c1ccc(C)c(-c2cnc(N)c(-c3ccnc(C)c3)n2)c1`, for which the IC50 against PIK3CA (human) worked out at 1600 nM; against PIK3CB (Human) it was 2700 nM; on PIK3CD (Human) it was 4500 nM; against PIK3CG (human) [2] it was 820 nM.

`CN[C@@H]1CCC[C@H]1NS(=O)(=O)c1ccc(C)c(-c2cnc(N)c(-c3ccnc(C)c3)n2)c1`: the IC50 on PIK3CA (human) amounted to 730 nM; against PIK3CB (Human) it was 7500 nM; at PIK3CD (Human) it was 910 nM; against PIK3CG (human) [2], 110 nM.

For the compound `Cc1ccc(S(=O)(=O)NCCC(C)(C)O)cc1-c1cnc(N)c(-c2nc(C3CC3)no2)n1`, the IC50 is 200 nM against PIK3CA (human); above 9100 nM against PIK3CB (Human); 292 nM against PIK3CD (Human); 12 nM at PIK3CG (human) [2]; 129 nM at PIK3CG (human) [1].

Regarding `Cc1ccc(S(=O)(=O)NCC(C)(C)O)cc1-c1cnc(N)c(-c2nc(C(C)C)no2)n1`, the concentration for half-maximal inhibition (IC50) is 1200 nM against PIK3CA (human), above 10000 nM on PIK3CB (Human), 1700 nM against PIK3CD (Human) and 61 nM at PIK3CG (human) [2].

As for `Cc1ncc(-c2nc(-c3cc(S(=O)(=O)NCC(F)(F)F)ccc3C)cnc2N)s1`, the IC50 against PIK3CA (human) was found to be 40 nM; on PIK3CB (Human), 990 nM; against PIK3CD (Human), 40 nM; against PIK3CG (human) [2] it was 5 nM.

Regarding `Cc1cc(-c2nc(-c3cc(S(=O)(=O)N[C@H]4CC[C@H](N)CC4)ccc3C)cnc2N)ccn1`, the IC50 came out at 180 nM against PIK3CA (human); 5220 nM on PIK3CB (Human); 1700 nM on PIK3CD (Human); 51 nM at PIK3CG (human) [2]; 63 nM against PIK3CG (human) [1].

Consider `Cc1ccc(S(=O)(=O)NC[C@@H]2COCCN2C)cc1-c1cnc(N)c(-c2cn(C)nc2C)n1.Cc1ccc(S(=O)(=O)NC[C@H]2COCCN2C)cc1-c1cnc(N)c(-c2cn(C)nc2C)n1`, for which the IC50 at PIK3CG (human) [3] is 241 nM.

At PIK3CG (human) [1], `Cc1ncc(-c2nc(-c3cc(S(=O)(=O)NCC4COCCN4C)ccc3C)cnc2N)s1` (configuration not stated) registered an IC50 of 145 nM.

In the case of `Cc1ccc(S(=O)(=O)NCC(C)(C)CO)cc1-c1cnc(N)c(-c2nc(C3CC3)no2)n1`, the IC50 on PIK3CA (human) was 1100 nM; against PIK3CB (Human), above 9100 nM; against PIK3CD (Human), 330 nM; against PIK3CG (human) [2], 81 nM.

Consider `Cc1ccc(S(=O)(=O)NCC[C@@H](O)C(F)(F)F)cc1-c1cnc(N)c(-c2cn(C)nc2C)n1.Cc1ccc(S(=O)(=O)NCC[C@H](O)C(F)(F)F)cc1-c1cnc(N)c(-c2cn(C)nc2C)n1`, for which the results for the IC50 against PIK3CG (human) [1] and against PIK3CG (human) [3] were 60 nM and 337 nM, respectively.

`Cc1ccc(S(=O)(=O)NC[C@H]2CCC(C)(C)O2)cc1-c1cnc(N)c(-n2cncn2)n1` gave an IC50 against PIK3CG (human) [1] of 411 nM.

The compound `Cc1ccc(S(=O)(=O)N[C@H]2CC3(C[C@@H](O)C3)C2)cc1-c1cnc(N)c(-c2cn(C)nc2C)n1` (some centres not stated) yielded an IC50 against PIK3CG (human) [1] of 40 nM.
